According to PubChem BioAssay (NCI):
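96-well plates; 48 h exposure; 5 concentrations. Endpoints by linear interpolation between flanking doses. Not reached: highest tested concentration assigned. TGI denotes the concentration required for complete inhibition of growth.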

Assays:
Assay in all cases: NCI tumour cell line growth inhibition, 48 h
SK-MEL-28 melanoma = test system: SK-MEL-28 melanoma
UACC-62 melanoma = test system: UACC-62 melanoma
OVCAR-8 ovarian = test system: OVCAR-8 ovarian
SNB-19 CNS = test system: SNB-19 CNS
MALME-3M melanoma = test system: MALME-3M melanoma
SN12C renal = test system: SN12C renal
SK-MEL-2 melanoma = test system: SK-MEL-2 melanoma
K-562 leukemia = test system: K-562 leukemia
RXF-631 renal = test system: RXF-631 renal
COLO 205 colon = test system: COLO 205 colon
EKVX NSCLC = test system: EKVX NSCLC
HOP-62 NSCLC = test system: HOP-62 NSCLC
IGROV1 ovarian = test system: IGROV1 ovarian
XF 498 CNS = test system: XF 498 CNS
HT29 colon = test system: HT29 colon
M14 melanoma = test system: M14 melanoma
LXFL 529 NSCLC = test system: LXFL 529 NSCLC
OVCAR-4 ovarian = test system: OVCAR-4 ovarian
DMS 273 small cell lung = test system: DMS 273 small cell lung
SW-620 colon = test system: SW-620 colon
HCC-2998 colon = test system: HCC-2998 colon
HCT-116 colon = test system: HCT-116 colon
DLD-1 colon = test system: DLD-1 colon
CAKI-1 renal = test system: CAKI-1 renal
NCI-H522 lung = test system: NCI-H522 lung
HOP-92 NSCLC = test system: HOP-92 NSCLC
UO-31 renal = test system: UO-31 renal
DMS 114 small cell lung = test system: DMS 114 small cell lung
OVCAR-3 ovarian = test system: OVCAR-3 ovarian
786-0 renal = test system: 786-0 renal
KM12 colon = test system: KM12 colon
NCI-H460 lung = test system: NCI-H460 lung
TK-10 renal = test system: TK-10 renal
SNB-78 CNS = test system: SNB-78 CNS
SF-295 CNS = test system: SF-295 CNS
MOLT-4 leukemia = test system: MOLT-4 leukemia
SK-MEL-5 melanoma = test system: SK-MEL-5 melanoma
RXF 393 renal = test system: RXF 393 renal
U251 CNS = test system: U251 CNS
SF-539 CNS = test system: SF-539 CNS
UACC-257 melanoma = test system: UACC-257 melanoma
RPMI-8226 leukemia = test system: RPMI-8226 leukemia
SF-268 CNS = test system: SF-268 CNS
SNB-75 CNS = test system: SNB-75 CNS
NCI-H23 lung = test system: NCI-H23 lung
HCT-15 colon = test system: HCT-15 colon
HL-60(TB) leukemia = test system: HL-60(TB) leukemia
CCRF-CEM leukemia = test system: CCRF-CEM leukemia
SK-OV-3 ovarian = test system: SK-OV-3 ovarian
A549 NSCLC = test system: A549 NSCLC
A498 renal = test system: A498 renal
LOX IMVI melanoma = test system: LOX IMVI melanoma
NCI-H226 lung = test system: NCI-H226 lung
ACHN renal = test system: ACHN renal
OVCAR-5 ovarian = test system: OVCAR-5 ovarian
KM20L2 colon = test system: KM20L2 colon
M19-MEL melanoma = test system: M19-MEL melanoma

Measured: TGI

C[C@]12CC[C@H](O)CC1CCC[C@@H]2O (some centres not stated)
not listed: NCI-H226 lung | ACHN renal | OVCAR-5 ovarian | KM20L2 colon | M19-MEL melanoma
> 100 µM: all other assays above

CCC1(O)CC(c2ccccc2)N(C)C(c2ccccc2)C1 (configuration not stated)
not listed: XF 498 CNS | RPMI-8226 leukemia
> 100 µM: all other assays above
